Results on 6 molecules are retold here after patent US20050158264A1, “Sympathetic nerve-stimulating fragrant compositions” (SHISEIDO COMPANY, LTD., priority 2000, published 2005).

Counter-ions that a name gives are not always drawn.

One experiment concerns sympathetic nerves. Kind of experiment: Measurement of sympathetic nerve activity by systolic blood pressure fluctuation analysis (FLUCLET) while smelling fragrance. The class given is in vivo. The conditions noted are these: subjects smelling fragrance 3 minutes vs 3 minutes without fragrance, FIG. 1-4. From the text: Cardiac rate intervals (heartbeat intervals) and blood pressure changes (fluctuations) are complex even during resting periods, and are governed by several systems including the sympathetic and parasympathetic nervous systems. It is known that frequency analysis of heartbeat intervals and blood pressure fluctuations can used to calculate the activity of each of these systems. The high-frequency component of cardiac rate fluctuation indicates parasympathetic nerve activity while the low-frequency component indicates the combined activity of the sympathetic and parasympathetic nervous systems, and the low-frequency component of blood pressure fluctuation indicates sympathetic nerve activity (from material by Dainippon Pharmaceutical Co.). Sympathetic nerve activity was measured by analysis of systolic blood pressure fluctuation using an autonomic nervous system activity analysis system (FLUCLET, product of Dainippon Pharmaceutical Co.). Subjects were allowed to rest for 5 minutes in a thermostatic room at room temperature (24° C.), the blood pressure value was measured on the upper arm and used to correct the blood pressure value at the wrist, and then the wrist blood pressure was continuously measured thereafter. Cotton was placed under the nostrils at the start of measurement, the blood pressure was measured for 3 minutes without fragrant substance, and then the nose cotton was impregnated with fragrant substance and the blood pressure was measured for 3 minutes.
For `CCOC(=O)CC(O)(CC(=O)OCC)C(=O)OCC` [TEC, triethyl citrate, reference compound], the “effect of fragrance on relative sympathetic nerve activity (in words)” value was “no change”.
With `O=C(OCc1ccccc1)c1ccccc1` [benzyl benzoate], the “effect of fragrance on relative sympathetic nerve activity (in words)” value is on record as “increased effect of sympathetic nerve activity”.
As to `C=C(C)[C@H]1CC=C(C)CC1` [limonene], the “effect of fragrance on relative sympathetic nerve activity (in words)” value is listed as “increased effect of sympathetic nerve activity”.
On the same count and under the same terms, with `C=CC(=C)CCC=C(C)C` [myrcene] the entry was “increased effect of sympathetic nerve activity”.
Still for that read-out and setting: with pinene the entry was “increased effect of sympathetic nerve activity”.

The next experiment relates to uncoupling protein-3.
Assay: not given
The conditions noted are these: 70 mg subcutaneous tissue from 6-week-old rats; caffeine 1 mM, noradrenaline 0.5 μg/ml; FIG. 6.
In the case of `Cn1c(=O)c2c(ncn2C)n(C)c1=O` [caffeine], the “expression of uncoupling protein-3” value is recorded as “increased expression”.
